Assay results from paper PMC7504721, “Targeting the Initiator Protease of the Classical Pathway of Complement Using Fragment-Based Drug Discovery” (Molecules, 2020).

Target: T1, full-length C1r (Homo sapiens, UniProt P00736)
T1 construct: purchased Complement Technology (CompTech)
T1 sequence (P00736 18-463 limits assumed): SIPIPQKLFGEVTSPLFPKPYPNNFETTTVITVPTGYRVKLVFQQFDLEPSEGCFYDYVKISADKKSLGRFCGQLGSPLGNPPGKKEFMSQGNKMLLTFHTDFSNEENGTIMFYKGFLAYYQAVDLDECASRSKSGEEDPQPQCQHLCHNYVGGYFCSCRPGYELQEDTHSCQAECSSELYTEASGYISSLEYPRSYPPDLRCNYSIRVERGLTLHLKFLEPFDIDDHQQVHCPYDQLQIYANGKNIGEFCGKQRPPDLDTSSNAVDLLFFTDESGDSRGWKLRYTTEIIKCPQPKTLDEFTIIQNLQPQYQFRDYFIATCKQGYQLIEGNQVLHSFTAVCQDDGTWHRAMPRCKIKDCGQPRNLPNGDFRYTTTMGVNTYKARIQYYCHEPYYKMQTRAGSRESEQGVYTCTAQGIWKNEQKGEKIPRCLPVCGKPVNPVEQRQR
T1 sequence (P00736 464-705 limits assumed): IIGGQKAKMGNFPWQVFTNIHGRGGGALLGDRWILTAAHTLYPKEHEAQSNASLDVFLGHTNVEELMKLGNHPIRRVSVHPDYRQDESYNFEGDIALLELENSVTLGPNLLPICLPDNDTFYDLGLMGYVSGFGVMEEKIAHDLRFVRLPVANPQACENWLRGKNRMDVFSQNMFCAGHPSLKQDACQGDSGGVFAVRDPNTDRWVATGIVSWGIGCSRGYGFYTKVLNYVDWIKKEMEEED
Test: SPR domain mapping, full-length C1r surface
Type: binding
Conditions: duplicate
Description: Figure 5 Selectivity and mechanistic analysis of CMP-1611 and CMP-1696. (A) Chemical structure of CMP-1611. (B) Chemical structure of CMP-1696. (C) Dose-dependent inhibition by CMP-1611 and CMP-1696 in a classical pathway-specific ELISA. Data were fit with GraphPad Prism using non-linear regression with a log(inhibitor) vs. response model. […] The CMP-778 inhibitory response could not be fit to a dose-response inhibition model. (D) Complement pathway selectivity of CMP-1611 and CMP-1696. Compounds were assessed for their ability to inhibit activation of complement via the lectin and alternative pathways using single doses of 500 μM compound in triplicate. To ensure only lectin pathway activation, 2% (v/v) C1q-depleted serum (CompTech) was used and mannan was used as the activator. To match serum sources and amounts for this assay, the classical pathway assays were repeated here using serum from CompTech at 2% (v/v) final concentration. Alternative pathway activation assays were performed using 20% (v/v) serum (CompTech), alternative pathway buffers, and C3b detection (see Methods and Materials for details). […] We then injected each compound simultaneously over the three surfaces at 500 μM and measured binding responses. […] All sensorgrams were reference and blank subtracted and analyzed using T200 Evaluation Software (GE Healthcare, Chicago, IL, USA).

Compound	relative SPR binding response, full-length C1r (10 µM Futhan)	relative SPR binding response, full-length C1r (500 µM compound)
N=C(N)c1ccc2cc(OC(=O)c3ccc(N=C(N)N)cc3)ccc2c1 [Futhan, reference compound]	bound C1r and C1r-CCP2-SP similarly	–
COCc1nc(-c2ccc(OC3CNC3)cc2)no1 [CMP-1696]	–	high binding
